In US20260345621A1, “GABAA RECEPTOR MODULATORS AND USES THEREOF” (Engrail Therapeutics, Inc., priority 2022, published 2026):
“Also recorded” adds a separate entry of the source. Read-outs that look alike come from different tables or passages of the source.

Experiments:
[1] = Stability of solutions/suspensions at room temperature; format: physicochemical
Description: The dosage forms provided herein may be prepared and placed in a container for storage at ambient or elevated temperature. […] This is beneficial because transportation of commercially viable dosage forms may benefit from stability at temperatures greater than those requiring refrigeration or sub-freezing environments during transportation and storage at the site of use.

[2] = Multiple ascending dose study, plasma pharmacokinetics; format: in vivo, human (healthy volunteers); conditions: for AUC(0-t) at 24 h / Cmax at 24 h / AUC tau / Cmax at 288 h / half-life: human, plasma, po
Experimental: A clinical study was developed to evaluate safety, tolerability, pharmacokinetics, and pharmacodynamics of Compound 1 at plasma steady-state in 40 healthy human volunteers. Compound 1 (provided as Compound 1 phosphate) was administered to participants as multiple ascending doses of 0.5 mg (N=6), 1.0 mg (N=6), 1.5 mg (N=6), 2.0 mg (N=6), or 5.0 mg (N=6) once daily (QD) for 12 days.
Blood samples were collected, and plasma concentrations were measured using a validated high performance liquid chromatography/liquid chromatography-mass spectrometry/mass spectrometry method. The PK parameters assessed included Cmax, Tmax, AUC from administration to the end of dosing (AUC0-t), AUC0-24, AUC0-inf, t1/2, terminal rate constant (λz), apparent total clearance of the drug from plasma (CL/F), and apparent volume of distribution during terminal phase after non-intravenous administration (Vz/F).
The plasma concentration data for Compound 1 were summarized by dose level and the planned sampling time points using descriptive statistics (n, SD, median, minimum, maximum, geometric mean, and coefficient of variance (CV %) for the geometric mean) for the PK Analysis Set.
Specifically, samples for PK analyses were taken on Day 1 and Day 12 pre-dose, 0.5, 1, 1.5, 3, 6, 8, 10, and 12 h post-dose, with additional samples taken on every dosing Day (24 hours after the previous day's dose) and 24, 72, 168, and 336 h after last dosing on Day 12. All individual Compound 1 concentrations were above the LLOQ of 0.0500 ng/mL at 0.5 h post-dose, except for 1 participant, for whom the concentration was above the LLOQ at 1 h post-dose.

[3] = 0.5 mg oral QD, Day 1, 1440 min
[4] = 1.0 mg oral QD, Day 1, 1440 min
[5] = 1.5 mg oral QD, Day 1, 1440 min
[6] = 2.0 mg oral QD, Day 1, 1440 min

CC(C)(O)c1cnn2c(-c3ccc(F)c(-c4c(F)cccc4C#N)c3)cnc2n1 [Compound 1, 2′,6-difluoro-5′-(3-(2-hydroxypropan-2-yl)imidazo[1,2-b][1,2,4]triazin-7-yl)-[1,1′-biphenyl]-2-carbonitrile]
stability of standard solutions ([1]; 20 μg/mL): 6 days | stability of samples in 0.5% TYLOSE MH 300 ([1]; 0.12 to 7.2 mg/mL): 8 days | AUC0-24 (mean) [2, 3]: 52.56 ng·h/mL | Cmax (mean) [2, 3]: 4.615 ng/mL | AUCtau (mean) ([2]; 0.5 mg oral QD, Day 12): 197.54 ng·h/mL | t1/2 (mean) ([2]; 0.5 mg oral QD, Day 12): 65.610 h | Cmax (mean) ([2]; 0.5 mg oral QD, Day 12, 17280 min): 11.660 ng/mL | AUC0-24 (mean) [2, 4]: 117.81 ng·h/mL | Cmax (mean) [2, 4]: 8.497 ng/mL | AUCtau (mean) ([2]; 1.0 mg oral QD, Day 12): 410.07 ng·h/mL | t1/2 (mean) ([2]; 1.0 mg oral QD, Day 12): 60.876 h | Cmax (mean) ([2]; 1.0 mg oral QD, Day 12, 17280 min): 23.333 ng/mL | AUC0-24 (mean) [2, 5]: 216.99 ng·h/mL | Cmax (mean) [2, 5]: 18.833 ng/mL | AUCtau (mean) ([2]; 1.5 mg oral QD, Day 12): 705.65 ng·h/mL | t1/2 (mean) ([2]; 1.5 mg oral QD, Day 12): 50.526 h | AUC0-24 (mean) [2, 6]: 243.73 ng·h/mL | Cmax (mean) [2, 6]: 19.633 ng/mL | AUCtau (mean) ([2]; 2.0 mg oral QD, Day 12): 873.17 ng·h/mL | t1/2 (mean) ([2]; 2.0 mg oral QD, Day 12): 61.167 h | Cmax (mean) ([2]; 2.0 mg oral QD, Day 12, 17280 min): 49.817 ng/mL | AUC0-24 (mean) ([2]; 5.0 mg oral QD, Day 1, 1440 min): 641.92 ng·h/mL | t1/2 (mean) ([2]; 5.0 mg oral QD, Day 12): 38.695 h | trend of t1/2 or λz with increasing dose ([2]; 0.5-5.0 mg oral QD): no trend towards change in t1/2 or λz with increasing dose | dose proportionality of exposure ([2]; Cmax and AUC, 0.5-5.0 mg oral QD): generally increased dose- and concentration-proportionally; also recorded: Dose-proportional PK were confirmed over the investigated dose range | median time of the last quantifiable concentration ([2]; all cohorts, Day 1): approximately 24 h | linearity of dose normalized Cmax and AUC0-24 ([2]; arguable exception 1.5 mg): consistent with linear kinetics | AUC(0-t) at 24 h ([2]; 0.5 mg, 0.5 mg oral QD, Day 1, read-out: AUC0-24 (mean)): 53 ± 7 ng·h/mL | AUC(0-t) at 24 h ([2]; 0.5 mg, 0.5 mg oral QD, Day 1, read-out: AUC0-24 (median)): 54.8 ng·h/mL | Cmax at 24 h ([2]; 0.5 mg, 0.5 mg oral QD, Day 1, read-out: Cmax (mean)): 4.6 ± 2 ng/mL | Cmax at 24 h ([2]; 0.5 mg, 0.5 mg oral QD, Day 1, read-out: Cmax (median)): 4.58 ng/mL | AUC tau ([2]; 0.5 mg, 0.5 mg oral QD, Day 12, read-out: AUCtau (mean)): 198 ± 51 ng·h/mL | AUC tau ([2]; 0.5 mg, 0.5 mg oral QD, Day 12, read-out: AUCtau (median)): 201 ng·h/mL | Cmax at 288 h ([2]; 0.5 mg, 0.5 mg oral QD, Day 12, read-out: Cmax (mean)): 11.7 ± 4 ng/mL | Cmax at 288 h ([2]; 0.5 mg, 0.5 mg oral QD, Day 12, read-out: Cmax (median)): 11.6 ng/mL | half-life ([2]; 0.5 mg, 0.5 mg oral QD, Day 12, read-out: t1/2 (mean) (converted)): 66 ± 24 h | half-life ([2]; 0.5 mg, 0.5 mg oral QD, Day 12, read-out: t1/2 (median) (converted)): 64.3 h | AUC(0-t) at 24 h ([2]; 1 mg, 1.0 mg oral QD, Day 1, read-out: AUC0-24 (mean)): 118 ± 27 ng·h/mL | AUC(0-t) at 24 h ([2]; 1 mg, 1.0 mg oral QD, Day 1, read-out: AUC0-24 (median)): 117 ng·h/mL | Cmax at 24 h ([2]; 1 mg, 1.0 mg oral QD, Day 1, read-out: Cmax (mean)): 8.5 ± 3 ng/mL | Cmax at 24 h ([2]; 1 mg, 1.0 mg oral QD, Day 1, read-out: Cmax (median)): 8.99 ng/mL | AUC tau ([2]; 1 mg, 1.0 mg oral QD, Day 12, read-out: AUCtau (mean)): 410 ± 115 ng·h/mL | AUC tau ([2]; 1 mg, 1.0 mg oral QD, Day 12, read-out: AUCtau (median)): 416 ng·h/mL | Cmax at 288 h ([2]; 1 mg, 1.0 mg oral QD, Day 12, read-out: Cmax (mean)): 23.3 ± 5 ng/mL | Cmax at 288 h ([2]; 1 mg, 1.0 mg oral QD, Day 12, read-out: Cmax (median)): 22.6 ng/mL | half-life ([2]; 1 mg, 1.0 mg oral QD, Day 12, read-out: t1/2 (mean) (converted)): 61 ± 29 h | half-life ([2]; 1 mg, 1.0 mg oral QD, Day 12, read-out: t1/2 (median) (converted)): 58.2 h | AUC(0-t) at 24 h ([2]; 1.5 mg, 1.5 mg oral QD, Day 1, read-out: AUC0-24 (mean)): 217 ± 48 ng·h/mL
